Patent US9771560B2, “High-throughput image-based chemical screening in zebrafish blastomere cell culture” (CHILDREN'S MEDICAL CENTER CORPORATION, priority 2012, dated 2017)
Entries after “also recorded” stand apart in the source; their conditions may differ. Structures can show the parent of a compound that is named as a salt.

How the values were obtained:
[1] = tested on: zebrafish blastomere cells; test: Culture of disassociated myf5-GFP; mylz2-mCherry blastomere cells in zESC medium (validation and pathway inhibitor tests); type: cell-based
Procedure: FIGS. 1A-1E show the chemical genetic screen to identify modifiers of skeletal muscle development. […] The yolk of the double transgenic embryo is mCherry positive, presumptively due to the maternal deposit of mCherry protein. mylz2-mCherry expression is not observed until 32 hpf. Its expression is first detected in anterior somites and then progressively spreads to posterior somites. […] Images were taken 48 hours after plating. Scale bars represent 250 μM. […] Blastomere cells from myf5-GFP; mylz2-mCherry embryos were cultured with or without bFGF and harvested at 24 hours. Results of bFGF treated cells are normalized to the expression of untreated cells. Error bars represent standard deviation (SD) from the triplicate quantitative RT-PCR reaction. All expressions are normalized to β-actin. […] Blastomere cells from myf5-GFP; mylz2-mCherry embryos were cultured with bFGF and harvested at 24 hours. Different populations were isolated by FACS. Results are normalized to the expression of cells of the double negative population. Error bars represent standard deviation (SD) from the triplicate quantitative RT-PCR reaction. All expressions are normalized to β-actin. […] 0.1% DMSO or 100 nM ATRA was added immediately. Images were taken 48 hours after plating. Scale bars represent 250 μM.
FIGS. 9A-9C show the chemical genetics screens to identify modifiers of skeletal muscle development (related to FIG. 2) FIG. 9A, Embryos were treated with hits at the sphere stage. Once the control embryos reached the 6-somite stage, they were collected for whole-mount in situ hybridization with the myoD riboprobe. […] Flat mounted embryos stained with the myoD riboprobe at the 6-somite stage are shown with anterior to the left. Embryos were treated with (±)-6-Chloro-PB hydrobromide, LY-294002, 1-ACYL-PAF, or ATRA. All chemicals were from the CHB library and were diluted 300-fold. The level of myoD reduction was determined by comparing the intensity of myoD expression in these embryos with that in control embryos treated with DMSO. […]

zebrafish embryos = test: Whole-mount in situ hybridization with myoD riboprobe in chemical-treated zebrafish embryos; type: in vivo; parameters: key to myoD expression: Level 1: decreased myoD staining at different levels, which are indicated in FIG. 9A; Level 2: decreased myoD staining at different levels, which are indicated in FIG. 9A; Level 3: decreased myoD staining at different levels, which are indicated in FIG. 9A; Level 4: decreased myoD staining at different levels, which are indicated in FIG. 9A; details: for myoD expression: embryos treated at the sphere stage, assayed at the 6-somite stage, CHB library chemicals diluted 300-fold, compared with DMSO; for perturbation of muscle development in vivo (myoD riboprobe): treated at the sphere stage, 6-somite stage, diluted 300-fold
Procedure: FIGS. 9A-9C show the chemical genetics screens to identify modifiers of skeletal muscle development (related to FIG. 2) FIG. 9A, Embryos were treated with hits at the sphere stage. Once the control embryos reached the 6-somite stage, they were collected for whole-mount in situ hybridization with the myoD riboprobe. […] Flat mounted embryos stained with the myoD riboprobe at the 6-somite stage are shown with anterior to the left. Embryos were treated with (±)-6-Chloro-PB hydrobromide, LY-294002, 1-ACYL-PAF, or ATRA. All chemicals were from the CHB library and were diluted 300-fold. The level of myoD reduction was determined by comparing the intensity of myoD expression in these embryos with that in control embryos treated with DMSO. FIG. 9B, myf5-GFP; mylz2-mCherry embryos were collected at the oblong stage and disassociated. The resulting blastomere cells were aliquoted into a 96-well plate with pre-added chemicals. The culture medium contained 10 ng/ml bFGF to promote muscle development. Cells were treated with 50 μM tyrphostin AG 879, 50 μM tyrphostin AG 808, 50 μM tyrphostin AG 555, 50 μM PD 98059, 10 μM U0126, 10 μM LY-294002, 10 μM wortmannin, or 20 μM rapamycin. Cells were imaged after 2 days by the Celigo cytometer for GFP, mCherry, and bright-field signals. FIG. 9C, 1-cell-stage myf5-GFP; mylz2-mCherry embryos were injected with 250 pg fgf8-MO and 250 pg fgf24-MO and rescued by adding […] at the dome stage.
Whole mount in situ hybridizations were performed as previously described (Belting et al., 2001).

[2] = tested on: zebrafish blastomere cells; test: High-throughput image-based chemical screen in myf5-GFP; mylz2-mCherry zebrafish blastomere cell culture with bFGF; details: medium supplemented with bFGF, 384-well, Celigo cytometer
From the text: (§1) FIGS. 2A-2C show the chemical genetic screens to identify modifiers of skeletal muscle development. FIG. 2A is a schematic of a high-throughput image-based chemical screening assay. Approximately 800 myf5-GFP; mylz2-mCherry double transgenic embryos were collected and disassociated at the oblong stage. The resulting blastomere cells were aliquoted into four 384-well plates with pre-added chemicals. We performed duplicates for each chemical to mitigate false positives. After 2 days, the 384-well plates were imaged using a Celigo cytometer. For each well, an image for each signal channel was captured. GFP and mCherry signals were determined by the Celigo cytometer's built-in software and confirmed by eye. […] Most of the hits could be grouped into three categories. […] The phenotype is presumptively due to inhibition of differentiation of muscle progenitors into mature muscle. […] This phenotype is presumptively due to the blocking of muscle progenitor commitment. […] Scale bars represent 250 μM. […] Scale bars represent 250 μM.
Disassociated blastomere cells were grown in zESC medium, which is composed of 70% LDF medium and 30% RTS34st-conditioned medium. The LDF medium contains 50% Leibowitz's L-15 (Invitrogen), 35% DMEM (Invitrogen), and 15% Ham's F-12 (Invitrogen), supplemented with 0.18 g/l sodium bicarbonate, 15 mM HEPES (Invitrogen), 1% L-Glutamine (Invitrogen), 10 μg/ml ciprofloxacin (Sigma-Aldrich), 100 μg/ml piperacillin (Sigma-Aldrich), 10 μg/ml amphotericin B (Sigma-Aldrich), 10 nM sodium selenite (Sigma-Aldrich), 1% N2 (Invitrogen), and 2% B27 (Invitrogen). The RTS34st conditioned medium was prepared by incubating fresh medium (Leibowitz's L-15 plus 15% FBS) on a confluent culture of RTS34st cells for 3 days.
(§2) Four 384-well plates were coated with 0.1% gelatin. Chemicals from the CHB library were diluted 150 times with zESC medium containing 1 ng/ml bFGF and were aliquoted 30 μl per well. Males and females of the myf5-GFP; mylz2-mCherry transgenic line were set up overnight and kept separated until morning when they were mixed for mate. Approximately 800 oblong-stage embryos were washed three times with E3 embryo water and were treated with pronase to remove chorions. Dechorionated embryos were washed with E3 embryo water three times and collected into a 50 ml falcon tube with 25 ml zESC medium containing 1 ng/ml bFGF. Embryos were disassociated by shaking approximately 20 times and were filtered through a 70 μm nylon mesh filter. The resulting single cells were diluted to 60 ml with zESC medium containing 1 ng/ml bFGF and aliquoted 30 μl per well into the four 384-well plates with pre-added chemicals. The cells were cultured in a 28-degree incubator without CO2. Cells were imaged by a Celigo cytometer (Cyntellect) under channels of GFP, mCherry, and transmitted light. The images were analyzed by the built-in software and confirmed eye.
To enable a higher throughput analysis of candidate modifiers of skeletal myogenesis, the embryo culture system was adapted to a semi-automated chemical screening platform. myf5-GFP; mylz2-mCherry embryos were collected from double transgenic parents and disassociated at the oblong stage. […] After one day, the cells were automatically imaged and analyzed using a Celigo cytometer for GFP, mCherry, and bright-field signals, and image analysis was confirmed by visual inspection (FIG. 2A).

[3] = tested on: zebrafish blastomere cells; test: Sensitized chemical screen in zebrafish blastomere cell culture in the absence of bFGF; type: cell-based
From the text: as §1, §2
The strong muscle promoting effect of bFGF made it difficult to identify enhancers of skeletal muscle development in our original system. Only one out of 2,400 chemicals was identified to promote muscle development. To sensitize the system for identifying enhancers of skeletal muscle development, we repeated the screen in the absence of bFGF. […] Among the six hits were three GSKβ inhibitor (kenpaullone, SB415286, and SB216763), two calpain inhibitors (E-64-D and MDL28170) and one cAMP activator forskolin.

[4] = tested on: human iPSCs (00409, 05400, and BJ)
Procedure: Cells were differentiated by generating EBs in suspension culture 7 days and then transferred to matrigel-coated plates for additional 29 days. During the suspension culture the cells received the differentiation medium STEMDiff Apel medium ([sequence] technologies) supplied with 10 ng/ml bFGF (Invitrogen), 0.5 μM BIO (Santa Cruz Biotechnologies) and 20 μM forskolin (Santa Cruz Biotechnologies). Two-three days after plating EBs, the medium was switched to DMEM complemented with 2% horse serum for the remaining differentiation.
Embryoid bodies (EBs) from BJ, 00409 or 05400 iPSCs were exposed for 7 days to a serum-free differentiation medium containing bFGF (10 ng/ml), BIO (0.5 μM) and forskolin (20 μM) (medium added at day 1, 3 and 5). […] After 7 days, we measured the expression of a panel of markers specific for ectoderm, endoderm or mesoderm to quantify differentiation outcomes.

**Q.** How did the “GFP and mCherry expression of cultured blastomere cells” value ([1]; bFGF added to zESC medium) turn out when basic fibroblast growth factor [bFGF] was run?
**A.** majority of cells became GFP and mCherry double positive

**Q.** And the “expression of other myogenic genes (myoD, mrf4, myog), quantitative RT-PCR” value ([1]; cultured with bFGF, harvested at 24 hours)?
**A.** highly expressed

**Q.** For `Cl.Cl.Cl.NCCCCNCCCN` [Spermidine trihydrochloride], which myoD expression (zebrafish embryos) is on record?
**A.** Level 1

**Q.** With `O=C1NC(=O)C(c2ccccc2[N+](=O)[O-])=C1Nc1ccc(O)c(Cl)c1` [SB415286] as the compound, how does the “change of myf5-GFP and mylz2-mCherry signals (hit category)” value (“change” below) [2] read?
**A.** increased expression of both markers

**Q.** What about the “GFP and mCherry signals” value [3] of the same compound?
**A.** increase the GFP and mCherry signals

**Q.** Which myoD expression (zebrafish embryos) does the source give for `CCCC[N+]1(C)[C@@H]2C[C@@H](OC(=O)[C@H](CO)c3ccccc3)C[C@H]1[C@@H]1O[C@@H]12.[Br-]` (single isomer, unassigned; (-)) [(-)-Scopolamine, n-Butyl-, bromide] here?
**A.** Level 1

**Q.** For `C[C@@H](NC(=O)/C(C#N)=C/c1ccc(O)c(O)c1)c1ccccc1` [Tyrphostin AG 527], which myoD expression (zebrafish embryos) is on record?
**A.** No Change; also recorded: Level 1

**Q.** For MDL28170, which “GFP and mCherry signals” value [3] is on record?
**A.** increase the GFP and mCherry signals

**Q.** `C=C1C(=O)O[C@@H]2C[C@@H](C)[C@@H]3C=CC(=O)[C@@]3(C)[C@@H](O)[C@H]12` [Helenalin] was tested. Which myoD expression (zebrafish embryos) did it give?
**A.** Toxic

**Q.** With `Clc1cnc(Oc2ccc(Oc3ncc(Cl)cc3Cl)cc2)c(Cl)c1` [TCPOBOP] as the compound, how does the “change” value [2] read?
**A.** only myf5-GFP expression

**Q.** For `O=C1Nc2cc(Br)ccc2/C1=C1/Nc2ccccc2/C1=N\O` [BIO, 6-Bromoindirubin-3′-oxime], which “toxicity compared with other GSK3β antagonists” value [4] is on record?
**A.** lower toxicity

**Q.** Which myoD expression (zebrafish embryos) does the source give for `NC(=O)c1ccc(-c2nc(-c3ccccn3)c(-c3ccc4c(c3)OCO4)[nH]2)cc1` [SB-431542] here?
**A.** No change

**Q.** How did the myoD expression (zebrafish embryos) turn out when `N#C/C(=C\c1c[nH]c2ccccc12)C(=O)c1ccc(O)c(O)c1` [Tyrphosfin AG 808] was run?
**A.** Level 1

**Q.** Which “GFP and mCherry signals” value [3] does the source give for `O=C1Cc2c([nH]c3ccc(Br)cc23)-c2ccccc2N1` [kenpaullone, 9-bromopaullone] here?
**A.** increase the GFP and mCherry signals

**Q.** How did the myoD expression (zebrafish embryos) turn out when `Cl.Oc1cc2c(c(Cl)c1O)CCNCC2c1ccccc1` (racemic) [(±)-6-Chloro-PB hydrochloride] was run?
**A.** Level 1

**Q.** What about the “perturbation of muscle development in vivo (myoD riboprobe)” value (zebrafish embryos) of the same compound?
**A.** verified to perturb muscle development in vivo

**Q.** Which “GFP and mCherry signals” value [3] does the source give for `Cn1cc(C2=C(c3ccc(Cl)cc3Cl)C(=O)NC2=O)c2ccccc21` [SB216763] here?
**A.** increase the GFP and mCherry signals

**Q.** With `CN(Cc1cnc2nc(N)nc(N)c2n1)c1ccc(C(=O)N[C@@H](CCC(=O)O)C(=O)O)cc1` [Methotrexate] as the compound, how does the myoD expression (zebrafish embryos) read?
**A.** No change

**Q.** Which results are given for `Cl.NCCNC(=O)c1ncsc1-c1cccc(F)c1` [Ro 41-1049 hydrochloride]?
**A.** myoD expression (zebrafish embryos): Level 4; change of myf5-GFP and mylz2-mCherry signals (hit category) [2]: decreased amount of both fluorescent colors

**Q.** With `CCOC(=O)[C@H]1O[C@@H]1C(=O)N[C@@H](CC(C)C)C(=O)NCCC(C)C` [E-64-D] as the compound, how does the “GFP and mCherry signals” value [3] read?
**A.** increase the GFP and mCherry signals

**Q.** `O=c1cc(N2CCOCC2)oc2c(-c3ccccc3)cccc12` [LY-294,002 hydrochloride] was tested. Which myoD expression (zebrafish embryos) did it give?
**A.** Level 2

**Q.** With `CO[C@H]1C[C@@H]2CC[C@@H](C)[C@@](O)(O2)C(=O)C(=O)N2CCCC[C@H]2C(=O)O[C@H]([C@H](C)C[C@@H]2CC[C@@H](O)[C@H](OC)C2)CC(=O)[C@H](C)/C=C(\C)[C@@H](O)[C@@H](OC)C(=O)[C@H](C)C[C@H](C)/C=C/C=C/C=C/1C` [Rapamycin] as the compound, how does the myoD expression (zebrafish embryos) read?
**A.** Level 2

**Q.** What does the source list for `CC1=C(/C=C/C(C)=C/C=C/C(C)=C/C(=O)O)C(C)(C)CCC1` [ATRA, all-trans retinoic acid]?
**A.** myoD expression (zebrafish embryos): Level 4; perturbation of muscle development in vivo (myoD riboprobe) (zebrafish embryos): verified to perturb muscle development in vivo; skeletal muscle development in vitro ([1]; zESC medium with bFGF, 100 nM ATRA, images 48 hours after plating): blocked skeletal muscle development; also recorded: blocks muscle development in vitro

**Q.** For `COCC(=O)O[C@]1(CCN(C)CCCc2nc3ccccc3[nH]2)CCc2cc(F)ccc2[C@@H]1C(C)C.Cl.Cl` [Miberfradil dihydrochloride], which myoD expression (zebrafish embryos) is on record?
**A.** Level 2

**Q.** How did the “change” value [2] turn out when `CCCNC(=O)[C@H]1O[C@@H]1C(=O)N[C@H](C(=O)N1CCC[C@H]1C(=O)OC)[C@@H](C)CC` [CA-074-Me] was run?
**A.** only myf5-GFP expression

**Q.** With `CC(C)(C)c1cc(/C=C(\C#N)C(N)=S)cc(C(C)(C)C)c1O` [Tyrphostin AG 879] as the compound, how does the myoD expression (zebrafish embryos) read?
**A.** Toxic

**Q.** What about the “change” value [2] of the same compound?
**A.** decreased amount of both fluorescent colors
